Source: US4987151A, “Triterpene derivatives cholesterol acyltransferase inhibitors and methods of using same” (The Trustees of Columbia University in the City of New York, priority 1989, dated 1991)

Tests used:
rats = details: cited from earlier work
J774 Macrophages = details: tissue culture macrophages (J774); cited from earlier work
ACAT enzyme = assay: ACAT inhibitory activity, free hydroxyl compound versus ester admixture; type: biochemical
Description: The term "effective amount" as used herein is an amount sufficient to inhibit the ACAT enzyme from esterifying cholesterol and fatty acids to cholesteryl esters. The actual amount used varies depending on which compound or composition or admixture is used. For example, the free hydroxyl compound seems to have less activity than an admixture of the stearate and palmitate esters. The actual dosages may vary from about 0.1 mg/kg/day to about 50 mg/kg/day, and may be adjusted by a person of ordinary skill in the art to maximize effectiveness while avoiding side effects and toxicities.

CCCCCCCN(Cc1ccc(CC(C)(C)C)cc1)C(=O)Nc1ccc(F)cc1F [CL 277,082]
effect on cholesterol concentrations in plasma, liver, and aorta (rats): decreasing cholesterol concentrations in plasma, liver, and aorta

CCCCCCCCCC[Si](C)(C)CCC(=O)NC(Cc1ccc(C)cc1)c1ccccc1 (stereo not drawn) [Sandoz Compound 58-035]
effect on foam cell formation (J774 Macrophages): help prevent foam cell formation

C[C@@H]1[C@H](O)CC[C@]2(C)[C@H]3CC=C4[C@@H]5C[C@](C)(C(=O)O)C[C@H](O)[C@]5(C)CC[C@@]4(C)[C@]3(C)CC[C@@H]12 [free hydroxyl compound]
activity relative to admixture of the stearate and palmitate esters (ACAT enzyme): less activity
